Laboratory results reported in patent publication US9945845B2, “Methods of screening using amphibians” (priority 2009, dated 2018).
Where two headings read alike, the source gives them in different places.

Tests used:
[1] = tested on: Xenopus embryos; details: for scored in the phenotypic Xenopus screens: known antiangiogenic compounds; for Embr. phen.: embryonic phenotype in the primary screen; for Lethality: — = no stage of lethality given; for Onset (NF): onset of edema
Method in brief: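 Stage 31 (37 hpf) Xenopus embryos, five per well, exposed to 20 µM compound in 1% DMSO at 23 °C for 4 days. Edema, lethality and other external phenotypes were scored daily by two investigators at stages 39, 41, 45 and 47.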

[2] = tested on: LEC; test: LEC cell proliferation assay; type: cell-based, human; details: for activity at 10 µM: Homo sapiens, 48 h
Experimental: (§1) Human umbilical vein endothelial cells (HUVEC) were purchased from PromoCell. […] HUVEC and LEC were cultured in endothelial basal medium EBM (Cambrex) supplemented with 20% fetal bovine serum (Invitrogen), antibiotic-antimycotics (100 U/ml penicillin, 100 μg/ml streptomycin, 250 ng/ml amphotericin; Invitrogen). 2 mM L-glutamine (Invitrogen), 10 μg/ml hydrocortisone (Fluka) and 25 μg/ml N^6,2′-O-dibutyryladenosine 3′,5′-cyclic monophosphate sodium salt (Fluka) for up to eleven passages.
(§2) The intensity of fluorescence, which is proportional to the number of viable cells, was measured using a microplate reader (SpectraMax Gemini EM; Molecular Devices). The chemical treatments were performed in five replicates.
(§3) The cell proliferation assays were performed by treating the endothelial cell cultures with compounds at a screening dose of 10 μM in 0.1% DMSO for 48 hours (FIG. 6a; Table 10).

[3] = tested on: HUVEC; test: HUVEC cell proliferation assay; type: cell-based, human; details: for activity at 10 µM: Homo sapiens, HUVEC, 48 h
Experimental: as §1, §2, §3

[4] = tested on: HUVEC; test: HUVEC tube formation assay; type: cell-based, human; details: for activity at 1 µM: Homo sapiens, HUVEC
Experimental: as §1
(§4) The effect of the selected chemicals on the formation of tube-like structures was performed as follows. […] After overnight incubation at 37° C. the treated cell cultures were fixed with 4% paraformaldehyde. Each chemical treatment was performed in triplicate and the experiment was repeated at least three times. Three representative images of hotspots with tube-like structures were taken per well using a digital camera (AxioCam MRm, Carl Zeiss) mounted on an inverted microscope (Axiovert 200M, Carl Zeiss). The length of the tube-like structures was measured using the IPLab software (BD Biosciences). For each experimental condition, results are represented as average total tube length (μm) per area (three image fields).
(§5) The effects of the selected compounds on endothelial tube formation was assessed after over treatment of LEC and HUVEC cultures at a compound concentration of 1 μM in 0.1% DMSO. The length of the tube-like structures was measured using the IPLab software.

[5] = tested on: LEC; test: cells; type: cell-based, human; details: for activity at 1 µM: Homo sapiens
Experimental: as §1, §4, §5

[6] = tested on: blood vessel development and/or lymphangiogenesis in Xenopus embryos; type: in vivo, Xenopus laevis; details: for lymph vessel development phenotype (vegfr3 expression, in words): 20 μM from stage 31, fixed at stage 42; for ALH phenotype: anterior lymph heart; for ALS phenotype: anterior lymph sac; for PLV phenotype: posterior lymph vessels
Experimental: All chemicals were purchased from Sigma and 10-mM stock solutions in DMSO were prepared. Chemicals were used at a final concentration of 20 μM in screening medium to treat homozygous albino Xenopus embryos, which lack natural pigmentation. Chemical treatments of embryos (n=7 per well) was initiated at stage 31 (37 hpf) and terminated at stages 35/36 (50 hpf) or 42 (80 hpf). Embryos were fixed in 4% paraformaldehyde and processed for whole mount in situ hybridization.
Where albino embryos were used, the bleaching step was omitted. Semi-automated whole mount in situ hybridizations were performed using the Biolane HTI machine (Hölle & Hüttner AG, Germany). […] Images were captured using a stereomicroscope (SteREO Lumar V12; Carl Zeiss) equipped with a digital camera (AxioCam Color; Carl Zeiss). Composite figures were organized and labeled using Adobe Photoshop CS2 and Adobe Illustrator CS software.
Edema formation or late-stage lethality may result from excretory system defects, (cardio)vascular and/or lymphatic vascular pathologies. […] Embryos were fixed for in situ hybridization either at stage 35/36 to analyze vasculogenesis and intersomitic vein angiogenesis defects or at stage 42 to evaluate possible defects in lymph vessel development (FIGS. 3-5).

[7] = compounds causing edema, 20 μM, 1% DMSO, treatment from stage 31, scored to stage 47
[8] = 20 μM, 1% DMSO, treatment from stage 31, Nieuwkoop & Faber stage
[9] = intersomitic vessels, Xenopus embryos
[10] = posterior cardinal vein, Xenopus embryos
[11] = vitelline vein network, Xenopus embryos
[12] = 10 μM in 0.1% DMSO, 48 hours, read-out: LEC proliferation
[13] = 10 μM in 0.1% DMSO, 48 hours, read-out: HUVEC proliferation
[14] = 1 μM in 0.1% DMSO, overnight, read-out: HUVEC tube formation
[15] = 1 μM in 0.1% DMSO, read-out: HUVEC tube formation (tube length)
[16] = 1 μM in 0.1% DMSO, overnight, read-out: LEC tube formation
[17] = 1 μM in 0.1% DMSO, read-out: LEC tube formation (tube length)
[18] = 20 μM from stage 31, fixed at stage 35/36

SMILES	Lethality (NF) [1, 7]	Embr. phen. [1]	Type of edema Pericordial ([1]; embryonic stage)	Lethality ([1]; embryonic stage)	Onset (NF) [1, 8]	LEC proliferation ([2]; 10 μM in 0.1% DMSO, 48 hours)	HUVEC proliferation ([3]; 10 μM in 0.1% DMSO, 48 hours)	HUVEC tube formation ([4]; 1 μM in 0.1% DMSO, overnight)	LEC tube formation ([5]; 1 μM in 0.1% DMSO, overnight)	ISV phenotype [6, 9]	PCV phenotype [6, 10]	VVN phenotype [6, 11]	activity at 10 µM [2, 12]	activity at 10 µM [3, 13]	activity at 1 µM [4, 14]	activity at 1 µM [5, 16]	blood vessel development phenotype (apj expression, in words) [6, 18]	further results
COc1cc2c(cc1O)CC[C@@H]1[C@@H]2CC[C@]2(C)[C@@H](O)CC[C@@H]12 [2-methoxyestradiol, 2-Hydroxyestradiol 2-methyl ether]	33/34	EDE	33/34	33/34	33/34	− (−, moderate inhibition (50-85% of control):)	O (O, inactive or marginal effects (85-115% of control);)	− − (− −, strong inhibition (<50% of control);)	− (−, moderate inhibition (50-85% of control):)	impaired	hypoplastic	hypoplastic	–	–	–	–	–	scored in the phenotypic Xenopus screens ([1]; 20 μM): active; effect on LEC proliferation (in words) ([2]; 10 μM in 0.1% DMSO, 48 hours): inhibited preferentially LEC proliferation; HUVEC tube formation (tube length) ([4]; 1 μM in 0.1% DMSO): 40 % of control; effect on HUVEC tube formation (in words) ([4]; 1 μM in 0.1% DMSO): blocked tube formation preferentially in HUVEC cultures; LEC tube formation (tube length) ([5]; 1 μM in 0.1% DMSO): 80 % of control
COC(=O)Nc1nc2ccc(C(=O)c3cccs3)cc2[nH]1 [Nocodazole]	33/34	–	33/34	33/34	33/34	–	–	–	–	impaired	hypoplastic	hypoplastic	65 to 82%	65 to 82%	< 50%	< 50%	interfered with blood vessel vasculogenesis and PCV assembly	activity at 1 µM [4, 15]: < 35%; activity at 1 µM [5, 17]: < 35%
COc1cc([C@@H]2c3cc4c(cc3[C@H](O)[C@H]3COC(=O)[C@H]23)OCO4)cc(OC)c1OC [Podophyllotoxin]	41/42	–	39/40	41/42	39/40	–	–	–	–	impaired	hypoplastic	hypoplastic	–	–	–	–	–	activity at 10 µM ([2]; read-out: LEC proliferation, 10 μM in 0.1% DMSO, 48 hours): 65 to 82%; activity at 10 µM ([3]; read-out: HUVEC proliferation, 10 μM in 0.1% DMSO, 48 hours): 65 to 82%; activity at 1 µM ([4]; read-out: HUVEC tube formation): < 50%; activity at 1 µM ([4]; read-out: HUVEC tube formation (tube length)): < 35%; activity at 1 µM ([5]; read-out: LEC tube formation): < 50%; activity at 1 µM ([5]; read-out: LEC tube formation (tube length)): < 35%
Nc1ccc2c3c(cccc13)C(=O)NC2=O [4-Amino-1,8-naphthalimide]	–	EDE	41/42	–	41/42	O (O, inactive or marginal effects (85-115% of control);)	+ (+, moderate promotion (>115-150% of control).)	O (O, inactive or marginal effects (85-115% of control);)	− (−, moderate inhibition (50-85% of control):)	normal	normal	hyperplastic	–	–	–	–	hyperplasia of the VVN, while ISV angiogenesis occurred unaffected	Type of edema Proctodeal ([1]; embryonic stage): 47 embryonic stages according to Nieuwkoop and Faber (NF); Type of edema Periocular ([1]; embryonic stage, * = causing bulging eyes, # = bilateral, causing narrow-set eyes): 41/42*; effect on LEC tube formation (in words) ([5]; 1 μM in 0.1% DMSO): preferentially blocked tube formation in LEC rather than HUVEC cultures; lymph vessel development phenotype (vegfr3 expression, in words) [6]: lymphangiogenesis was largely suppressed; ALH phenotype ([6]; Xenopus embryos): stunted; ALS phenotype ([6]; Xenopus embryos): impaired; PLV phenotype ([6]; Xenopus embryos): hypoplastic
COc1cc(OC)c(C=C2C(O)=Nc3ccccc32)c(OC)c1 [IC 261, 1,3-Dihydro-3-[(2,4,6-trimethoxyphenyl)methylene]-2H-indol-2-one]	41/42	–	35/36	41/42	35/36	–	–	–	–	impaired	hypoplastic	hypoplastic	50 to 85%	85 to 115%	50 to 85%	50 to 85%	interfered with blood vessel vasculogenesis and PCV assembly	Type of edema Proctodeal ([1]; embryonic stage): 41/42; Type of edema Pronephric ([1]; embryonic stage): 41/42; effect on LEC proliferation (in words) ([2]; 10 μM in 0.1% DMSO, 48 hours): inhibited preferentially LEC proliferation; activity at 1 µM [4, 15]: 50 to 85%; activity at 1 µM [5, 17]: 50 to 85%
Nc1ncnc2c1c(-c1ccc(Oc3ccccc3)cc1)cn2C1CCCC1 [7-Cyclopentyl-5-(4-phenoxy)phenyl-7H-pyrrolo[2,3-d]pyrimidin-4-ylamine]	45 NF	EDE	41/42	45 embryonic stages according to Nieuwkoop and Faber (NF)	41/42	O (O, inactive or marginal effects (85-115% of control);)	O (O, inactive or marginal effects (85-115% of control);)	− − (− −, strong inhibition (<50% of control);)	− − (− −, strong inhibition (<50% of control);)	stunted	normal	normal	–	–	–	–	interfered with angiogenic ISV sprouting but not with VVN assembly	Type of edema Pronephric ([1]; embryonic stage): 41/42; lymph vessel development phenotype (vegfr3 expression, in words) [6]: lymphangiogenesis was strongly suppressed; ALH phenotype ([6]; Xenopus embryos): impaired; ALS phenotype ([6]; Xenopus embryos): impaired; PLV phenotype ([6]; Xenopus embryos): hypoplastic
Cc1cc(C)c(C=C2C(=O)Nc3ccccc32)[nH]1 [SU 5416, 1,3-Dihydro-3-[(3,5-dimethyl-1H-pyrrol-2-yl)methylene]-2H-indol-2-one]	–	–	–	–	–	–	–	–	–	–	–	–	85 to 115%	85 to 115%	85 to 115%	50 to 85%	–	edema or other phenotype in compound-treated Xenopus embryos/tadpoles (in words) ([1]; 20 μM, 1% DMSO, treatment from stage 31): causing lethality; scored in the phenotypic Xenopus screens ([1]; 20 μM): active; Lethality (NF) ([1]; compounds causing lethality, 20 μM, 1% DMSO, treatment from stage 31, Nieuwkoop & Faber stage): 37/38; effect on LEC tube formation (in words) ([5]; 1 μM in 0.1% DMSO): preferentially blocked tube formation in LEC rather than HUVEC cultures; ISV phenotype ([6]; in vivo): impaired; PCV phenotype ([6]; in vivo): normal; VVN phenotype ([6]; in vivo): hypoplastic; blood vessel development phenotype (apj expression, in words) ([6]; in vivo): block ISV outgrowth
